Reference: the NIST ThermoML archive (doi:10.1016/j.fluid.2018.12.025)
Where “and” joins values, the source holds several entries; their conditions need not be identical. Equal entries are not always repeated.

Conditions: 101.33 kPa, Liquid, transient hot wire

O [water]
Conditions | thermal conductivity [W/m/K]
276.41 K | 0.5538
300.61 K | 0.6257
303.32 K | 0.6103
306.14 K | 0.6095
325.57 K | 0.6581
329.48 K | 0.6422
333.39 K | 0.6498
350.97 K | 0.6877
355.05 K | 0.672
356 K | 0.6781
356.22 K | 0.6716
356.54 K | 0.6823
356.76 K | 0.6589
356.9 K | 0.6827
360.47 K | 0.6765
361.52 K | 0.6756

CCC[N+]1(C)CCCC1.O=S(=O)([N-]S(=O)(=O)C(F)(F)F)C(F)(F)F
Conditions | thermal conductivity [W/m/K]
279.07 K | 0.118
300.88 K | 0.1176
318.32 K | 0.1174
326.71 K | 0.1167
340.17 K | 0.1178
351.81 K | 0.1166
354.65 K | 0.1172
389.67 K | 0.1162
408.29 K | 0.1142
409.24 K | 0.1156
434.89 K | 0.115
435.53 K | 0.1138

CCCC[N+]1(C)CCCC1.O=S(=O)([N-]S(=O)(=O)C(F)(F)F)C(F)(F)F
Conditions | thermal conductivity [W/m/K]
279.16 K | 0.1159
294.59 K | 0.115
306.65 K | 0.1157
334.78 K | 0.114
335.13 K | 0.1143
338.98 K | 0.1136
353.98 K | 0.1153
362.23 K | 0.1135
364.36 K | 0.1142
383.56 K | 0.1134
419.99 K | 0.1126
438.07 K | 0.1123

Cc1ccccc1 [toluene]
Conditions | thermal conductivity
276.19 K | 0.1359 W/m/K
278.42 K | 0.1339 W/m/K
281.25 K | 0.1324 W/m/K and 0.1325 W/m/K
302.05 K | 0.129 W/m/K
304.59 K | 0.1268 W/m/K
329.65 K | 0.1235 W/m/K
331.24 K | 0.1237 W/m/K
337.63 K | 0.1242 W/m/K
339.65 K | 0.122 W/m/K
339.85 K | 0.1226 W/m/K
340.17 K | 0.12 W/m/K
351.33 K | 0.1166 W/m/K
351.55 K | 0.12 W/m/K
352.25 K | 0.1179 W/m/K
